How the values were obtained:
professional examiners = test: Cooling treated towel (direct spraying), organoleptic ranking of cooling action; type: in vivo; details: for cooling action (in words), strength and consistency: comparison over 10 min to 24 hr, within the compound class
Description: 1% ethanol solution of each of di-1-menthyl carbonate, di-1-isopulegol carbonate, 1-menthyl-1-menthoxy ethyl carbonate, 1-menthyl-1-isopulegol carbonate, 1-menthoxypropanediol methylheptenone ketal, 1-menthoxypropanediol benzaldehyde acetal, 1-menthoxypropanediol-l-citronellal acetal, menthyl palmitate, menthyl stearate, menthyl isostearate, 1-menthol, and an equivalent-weight mixture of 1-menthyl-menthoxy ethyl carbonate, menthoxypropanediol citronellal acetal and menthyl isostearate was prepared. The solution was sprayed on a pure cotton hand towel (white plain towel made in Japan, 20 cm×20 cm, degrease-finished) in an amount of 1 g. After the towel was air-dried for 10 minutes, 3 hours, or 24 hours, the cooling action of each towel was determined organoleptically. Fifteen professional examiners with 5 years or more of experience are divided into three groups; different 5 kinds of samples were ranked from the strongest to weakest in action respectively by the examiners in three groups; and the result was shown by the sum of the ranking numbers.

internal bronchia = test: Cooling towel (washing processed), organoleptic ranking of cooling action; type: in vivo; details: for sum of the ranking numbers (cooling effect on treated hand towel after washing): 1% in base washing detergent, low sum = strong; for cooling action (in words), strength and durability: washing processed towel, comparison within the compound class
Description: (§1) Each of di-1-menthyl carbonate, di-1-isopulegol carbonate, 1-menthyl-1-menthoxy ethyl carbonate, 1-menthyl-1-isopulegol carbonate, 1-menthoxypropanediol benzaldehyde acetal, 1-menthoxypropanediol methylheptenone ketal, 1-menthoxypropanediol-1-citronellal acetal, menthyl palmitate, menthyl stearate, menthyl isostearate, 1-menthoxypropanediol, and an equivalent-weight mixture of 1-menthyl-menthoxy ethyl carbonate, menthoxypropanediol citronellal acetal and menthyl isostearate was compounded with a base washing detergent solution at a concentration of 1%.
(§2) A pure cotton hand towel (white plain towel made in Japan, 20 cm×20 cm, degrease-finished) was hand-washed for 3 minutes at a particular concentration (water: 10 L, detergent: 3 g, water temperature: 17° C.), then washed with the same amount of water for 2 minutes, squeezed lightly, and air-dried indoor for 6 hours. The hand towels prepared, the hand towels after 24 hours and the hand towels after 48 hours were brought into contact with the internal bronchia and the cooling action thereof was determined organoleptically. The determination was conducted as same as Example 1, that is, […] professional examiners are divided into three groups; different 5 kinds of samples were ranked from the strongest to weakest in action respectively by the examiners in three groups; and the result was shown by the sum of the ranking numbers.

[1] = as above; type: in vivo; details: after washing treatment and air drying for 6 hours
Description: as §1, §2

[2] = Group B, air-dried 10 min, 1% ethanol solution, low sum = strong
[3] = Group B, air-dried 3 hr, 1% ethanol solution, low sum = strong
[4] = Group B, air-dried 24 hr, 1% ethanol solution, low sum = strong
[5] = Group B, 24 hr (third time point)
[6] = Group A, air-dried 10 min, 1 g of 1% ethanol solution sprayed on cotton towel, ranked strongest to weakest (low sum = strong)
[7] = Group A, air-dried 3 hr, 1% ethanol solution, low sum = strong
[8] = Group A, air-dried 24 hr, 1% ethanol solution, low sum = strong
[9] = Group C, air-dried 10 min, 1% ethanol solution, low sum = strong
[10] = Group C, air-dried 3 hr, 1% ethanol solution, low sum = strong
[11] = Group C, air-dried 24 hr, 1% ethanol solution, low sum = strong

| SMILES | sum of the ranking numbers (cooling effect on treated hand towel at direct spraying) (professional examiners; [2]) | sum of the ranking numbers (cooling effect on treated hand towel at direct spraying) (professional examiners; [3]) | sum of the ranking numbers (cooling effect on treated hand towel at direct spraying) (professional examiners; [4]) | sum of the ranking numbers (cooling effect on treated hand towel after washing) (internal bronchia; Group B, 6 hr) | sum of the ranking numbers (cooling effect on treated hand towel after washing) (internal bronchia; [5]) | sum of the ranking numbers (cooling effect on treated hand towel after washing) (internal bronchia; Group B, 24 hr) | sum of the ranking numbers (cooling effect on treated hand towel at direct spraying) (professional examiners; [6]) | sum of the ranking numbers (cooling effect on treated hand towel at direct spraying) (professional examiners; [7]) | sum of the ranking numbers (cooling effect on treated hand towel at direct spraying) (professional examiners; [8]) | sum of the ranking numbers (cooling effect on treated hand towel after washing) (internal bronchia; Group A, 6 hr) | sum of the ranking numbers (cooling effect on treated hand towel after washing) (internal bronchia; Group A, 24 hr) | sum of the ranking numbers (cooling effect on treated hand towel after washing) (internal bronchia; Group A, 48 hr) | further results |
| --- | --- | --- | --- | --- | --- | --- | --- | --- | --- | --- | --- | --- | --- |
| CC(C)[C@@H]1CC[C@@H](C)C[C@H]1OCC1COC(c2ccccc2)O1 (some centres unmarked) [1-menthoxypropanediol benzaldehyde acetal] | 15 | 9 | 9 | 11 | 11 | 11 |  |  |  |  |  |  |  |
| CC(C)=CCCC1(C)OCC(CO[C@@H]2C[C@H](C)CC[C@H]2C(C)C)O1 (some centres unmarked) [1-menthoxypropanediol methylheptenone ketal] | 13 | 6 | 6 | 10 | 10 | 11 |  |  |  |  |  |  | cooling action (in words), strength and consistency (professional examiners; direct spraying): strongest in action |
| CC1CCC(C(C)C)C(OCC(O)CO)C1 (centres unmarked) [1-menthoxypropanediol, reference compound] |  |  |  |  |  |  |  |  |  |  |  |  | cooling action (in words) [1]: did not have cooling action |
| CC(C)=CCC[C@H](C)CC1OCC(CO[C@@H]2C[C@H](C)CC[C@H]2C(C)C)O1 (some centres unmarked) [1-menthoxypropanediol-1-citronellal acetal] | 18 | 16 | 16 | 13 | 13 | 13 |  |  |  |  |  |  |  |
| C=C(C)[C@@H]1CC[C@@H](C)C[C@H]1OC(=O)O[C@@H]1C[C@H](C)CC[C@H]1C(=C)C [Di-l-isopulegol carbonate, di-1-isopulegol carbonate] |  |  |  |  |  |  | 17 | 12 | 11 | 14 | 13 | 14 | melting point: 86 to 87 °C |
| CC(C)[C@@H]1CC[C@@H](C)C[C@H]1OC(=O)O[C@@H]1C[C@H](C)CC[C@H]1C(C)C [Di-l-menthyl carbonate, di-1-menthyl carbonate] | 24 | 19 | 19 | 16 | 16 | 15 | 24 | 21 | 20 | 16 | 18 | 18 | sum of the ranking numbers (cooling effect on treated hand towel at direct spraying) (professional examiners; [9]): 17; sum of the ranking numbers (cooling effect on treated hand towel at direct spraying) (professional examiners; [10]): 21; sum of the ranking numbers (cooling effect on treated hand towel at direct spraying) (professional examiners; [11]): 21; sum of the ranking numbers (cooling effect on treated hand towel after washing) (internal bronchia; Group C, 6 hr): 16; sum of the ranking numbers (cooling effect on treated hand towel after washing) (internal bronchia; Group C, 24 hr): 21; sum of the ranking numbers (cooling effect on treated hand towel after washing) (internal bronchia; Group C, 48 hr): 21; cooling action (in words), strength and durability (internal bronchia): weakest |
| CCCCCCCCCCCCCCCC(=O)OC1CC(C)CCC1C(C)C (centres unmarked) [Menthyl palmitate, menthyl palmitate] |  |  |  |  |  |  |  |  |  |  |  |  | sum of the ranking numbers (cooling effect on treated hand towel at direct spraying) (professional examiners; [9]): 15; sum of the ranking numbers (cooling effect on treated hand towel at direct spraying) (professional examiners; [10]): 17; sum of the ranking numbers (cooling effect on treated hand towel at direct spraying) (professional examiners; [11]): 17; sum of the ranking numbers (cooling effect on treated hand towel after washing) (internal bronchia; Group C, 6 hr): 18; sum of the ranking numbers (cooling effect on treated hand towel after washing) (internal bronchia; Group C, 24 hr): 16; sum of the ranking numbers (cooling effect on treated hand towel after washing) (internal bronchia; Group C, 48 hr): 17 |
| CCCCCCCCCCCCCCCCCC(=O)OC1CC(C)CCC1C(C)C (centres unmarked) [Menthyl stearate, menthyl stearate] |  |  |  |  |  |  |  |  |  |  |  |  | sum of the ranking numbers (cooling effect on treated hand towel at direct spraying) (professional examiners; [9]): 21; sum of the ranking numbers (cooling effect on treated hand towel at direct spraying) (professional examiners; [10]): 15; sum of the ranking numbers (cooling effect on treated hand towel at direct spraying) (professional examiners; [11]): 17; sum of the ranking numbers (cooling effect on treated hand towel after washing) (internal bronchia; Group C, 6 hr): 21; sum of the ranking numbers (cooling effect on treated hand towel after washing) (internal bronchia; Group C, 24 hr): 18; sum of the ranking numbers (cooling effect on treated hand towel after washing) (internal bronchia; Group C, 48 hr): 17 |
| CC(C)[C@@H]1CC[C@@H](C)C[C@H]1O [l-Menthol, 1-menthol, reference compound] | 5 | 25 | 25 | 25 | 25 | 25 | 5 | 24 | 25 | 25 | 25 | 25 | cooling action (in words) (professional examiners; direct spraying, after air drying for 10 minutes): strongest cooling action; cooling action (in words), strength and consistency (professional examiners; direct spraying): less consistent |
| C=C(C)[C@@H]1CC[C@@H](C)C[C@H]1OC(=O)O[C@@H]1C[C@H](C)CC[C@H]1C(C)C [l-Menthyl-l-isopulegol carbonate, 1-menthyl-1-isopulegol carbonate] |  |  |  |  |  |  | 19 | 1 | 14 | 12 | 12 | 11 |  |
| CC(C)[C@@H]1CC[C@@H](C)C[C@H]1OCCOC(=O)O[C@@H]1C[C@H](C)CC[C@H]1C(C)C [l-Menthyl-l-menthoxy ethyl carbonate, 1-menthyl-1-menthoxy ethyl carbonate] |  |  |  |  |  |  | 10 | 5 | 5 | 8 | 7 | 7 | cooling action (in words), strength and consistency (professional examiners; direct spraying): superior both in initial strength and consistency; cooling action (in words), strength and durability (internal bronchia): strongest |

— patent US8632792B2, “Cooling sensation agent composition and sensory stimulation agent composition” (Takasago International Corporation, priority 2008, dated 2014)
